Measured values reported in ChEMBL document CHEMBL3507680, “University of Dundee, Gates Library screen for HepG2 cell viability”.

Test: Human HepG2 cell viability assay in 384 well format
Format: toxicity, cell-based
Parameters: dose 125 nL, time 70.5 hour; cytotoxicity at 70.5 h: concentration not given beside the values
Conditions: HepG2 cells, read-out: Inhibition

Structure (SMILES) | cytotoxicity at 70.5 h [%]
CN(C)C(=O)CN(C)C(=O)c1csc(Br)c1 | 13.6
COc1ncccc1NC(=O)C1CC(=O)N(Cc2ccccn2)C1 (stereo not drawn) | 0.729
CN(Cc1cccc(Cl)c1)S(=O)(=O)N1CCOCC1 | 1.29
COCCn1nc(C(=O)N(C)Cc2cnn(C)c2)ccc1=O | 42.3
COc1cccc(CCNS(=O)(=O)c2ccc(NC(C)=O)cc2)c1 | 2.8
CSc1ccc(C(CNC(=O)C2CC2)N2CCc3sccc3C2)cc1 (stereo not drawn) | -2.83
CN(C)c1ccc(CNC(=O)c2ccc(Cl)cc2F)cc1 | 3.13
CN(C)C(=O)CNC(=O)c1ccc(Cl)cc1F | 45.3
Cc1nn(CC(=O)N2CCN(c3ccncc3)CC2)c(C)c1Cl | 1.17
CNS(=O)(=O)c1ccc(C(=O)NC2CCOc3ccccc32)o1 (stereo not drawn) | -1.45
Cc1nc2cc(O)nn2c(C)c1CCC(=O)N(C)Cc1cscn1 | 30.1
CCS(=O)(=O)CC(=O)NC(c1ccc(F)cc1)C1CCCC1 (stereo not drawn) | 1.5
CCN(CC)C(=O)CCc1c(C)nc2cc(O)nn2c1C | -3.01
Cc1cccc(OCCC(=O)N(C)CCC#N)c1C | -8.74
CCS(=O)(=O)CC(=O)NC(c1ccccc1)C1CCCCC1 (stereo not drawn) | 2.89
CN(CCn1nc2ccccn2c1=O)CC(=O)N1CCCC1 | 4.26
CN(Cc1nccn1CC(F)(F)F)C(=O)c1ccc(F)cc1F | -5.49
CNS(=O)(=O)c1cc(C(=O)NC2CCOc3ccccc32)cc(C)c1C (stereo not drawn) | 8.79
Cc1cccc(OCCC(=O)N(C)CCNS(C)(=O)=O)c1C | 0.181
CCc1nc(C2CCCN(C(=O)c3cnn(CC)c3)C2)no1 (stereo not drawn) | 2.05
COc1cccc2c1OCC(NC(=O)NC1CCN(C3CC3)CC1)C2 (stereo not drawn) | -5.93
CC(O)CN1CCN(C(=O)c2cc3ccccc3c(=O)[nH]2)CC1 (stereo not drawn) | -1.26
CN(CCN1CCOCC1)C(=O)CCCc1ccccc1 | -2.26

Structure (SMILES) | cytotoxicity at 70.5 h [%]
CN(CCn1nc2ccccn2c1=O)CC(=O)NC1CC1 | -8.39
Cc1cnn(CC2CCCN2C(=O)CCc2c(C)noc2Cl)c1 (stereo not drawn) | -8.81
O=C(c1ccc(F)c(F)c1)N1CCCC1CN1CCCC1 (stereo not drawn) | -1.66
O=C(NCCc1nnc2n1CCC2)NC1(c2cccc(F)c2)CC1 | 7.47
CCOc1nnc(CN(C)CC2CCCN2c2cccnn2)s1 (stereo not drawn) | -4.16
CNC(=O)Cc1ccc(NC(=O)NC(C)C(C)C)cc1 (stereo not drawn) | -15.4
CC(=O)N1CCN(S(=O)(=O)c2ccc(C)c(F)c2)CC1 | -4.35
Cc1ccc(C(=O)NCCCNS(C)(=O)=O)cc1-n1cccc1 | -4.62
CCNC(=O)NC(=O)CNC1(c2noc(C)n2)CCCCC1 | 28.5
CC(c1nc(C2CC2)no1)N1CCN(c2ccc(C#N)cn2)CC1 (stereo not drawn) | -10.6
NC(=O)C(CNC(=O)COCC(F)(F)F)Cc1ccc(F)cc1 (stereo not drawn) | -18.2
CC(C)C(C)NC(=O)Nc1ccc(CS(C)(=O)=O)cc1 (stereo not drawn) | -8.12
Cc1ccc(O)c(CNC2CCc3nc(C(C)C)nn3C2)n1 (stereo not drawn) | -11.7
CC(C)(C)c1n[nH]c(C2CN(C(=O)c3cc(Cl)c[nH]3)CCO2)n1 (stereo not drawn) | -10.3
Cc1ncsc1C(=O)Nc1cccc(OCC(F)F)n1 | -8.57
Cc1nc(CCNC(=O)N2CCC(Cc3cnn(C)c3)C2)cs1 (stereo not drawn) | -29.6
Cc1cccc(C(=O)N(C)Cc2cc(Br)cs2)n1 | -27.1
COCC(=O)N1CCN(C(=O)c2scnc2C)CC1 | -11.5
COC(=O)c1ccoc1COC(=O)CCc1ccc(OC)c(OC)c1 | -15.4
CCOC(CC)C(=O)NCCC(=O)N1CCN(c2ncccn2)CC1 (stereo not drawn) | -18.6
Cc1noc(C(C)N2CCN(CC(=O)N3CCOCC3)CC2)n1 (stereo not drawn) | 24
COCCCN(CCOC)C(=O)Nc1ccc(C)cc1C | 0.857
COCCCN(CCOC)C(=O)Nc1ccccc1Br | -15.2

Structure (SMILES) | cytotoxicity at 70.5 h [%]
CC(C)(C)c1n[nH]c(C2CN(C(=O)c3cc(C4CC4)on3)CCO2)n1 (stereo not drawn) | 28.3
CC(C)c1nc(C(=O)N2CCOCC2CC(=O)c2ccco2)c[nH]1 (stereo not drawn) | -14.6
CN(Cc1ccc(Cl)s1)C1CCCN(c2cccnn2)C1 (stereo not drawn) | -11.8
Cc1cnn(CC2CCCCN2CC(=O)NCc2ccccn2)c1 (stereo not drawn) | -11
CSCCC(=O)N1CCCC1c1ccsc1 (stereo not drawn) | 13.3
CCc1nnc2n1CC(CNCc1ccncc1)CC2 (stereo not drawn) | -6.39
CCOc1ncccc1NC(=O)c1cc2c(s1)CCC2 | 1.84
COc1ccc(CN(C)C(=O)CCc2c(C)nc(C)[nH]c2=O)cc1OC | -7.96
COc1cccc(NC(=O)N(CCO)Cc2ccsc2)c1 | -3.88
CC(C)(C(=O)NCC1CC1)c1ccccc1F | -4.02
Cc1cnn(CC(C)NCc2nc(-c3cccnc3)no2)c1 (stereo not drawn) | 3.38
CCc1ccc(C(=O)N2CCCC(n3cncn3)C2)o1 (stereo not drawn) | -2.71
O=C(c1ccc(Br)o1)N1CCCC(n2cncn2)C1 (stereo not drawn) | -3.18
NC(=O)CSCCC(=O)N1CCCC1c1ccsc1 (stereo not drawn) | -6.66
CCCc1n[nH]c(C2CN(C(=O)CCCn3cccn3)CCO2)n1 (stereo not drawn) | -7.13
CCCc1n[nH]c(C2CN(CCn3cccn3)CCO2)n1 (stereo not drawn) | -6.79
CCC(CC)c1cc(C(=O)N2CCCC(n3cncn3)C2)on1 (stereo not drawn) | -1.84
c1cnc(N2CCCC3(COCCN(c4nncs4)C3)C2)cn1 (stereo not drawn) | -6.49
O=C1CC(c2ccccc2)C2(CCN(Cc3ccncc3)CC2)N1 (stereo not drawn) | -12.7
CN(C)C(=O)[C@@H]1C[C@@H]2CCN(Cc3ccncc3)C[C@@H]2O1 | -11.6
O=C(Nc1cccnc1)[C@@H]1C[C@H]2OCC[C@H]2N(Cc2nccs2)C1 | -6.06
Cc1ccc(CN2C[C@@H](C(=O)Nc3cccnc3)C[C@H]3OCC[C@H]32)o1 | 21.9
CN(C)C(=O)COCC1CN(Cc2ccoc2)Cc2nnn(C)c21 (stereo not drawn) | 15

Structure (SMILES) | cytotoxicity at 70.5 h [%]
Cn1nc(CN2CCCCC2)c2c1CN(C(=O)c1cccc(Cl)c1)C2 | 40.4
O=C1COC2(CCN(C(=O)[C@H]3CCCO3)CC2)CN1Cc1ccccn1 | 17.4
Cn1nc(CN2CCCCC2)c2c1CN(C(=O)c1ccccc1)C2 | 23.3
Cc1ccc(CNCC2Cn3nnc(-c4cnn(C)c4)c3CO2)o1 (stereo not drawn) | 15.6
c1cc(-c2nnn3c2COC(CNCc2nccs2)C3)ccn1 (stereo not drawn) | -0.24
Cn1cccc1C(=O)N1Cc2c(CN3CCCCC3)nn(C)c2C1 | 0.721
CS(=O)(=O)N1CCC(c2nnc3ccc(C(=O)NC4CCC4)cn23)C1 (stereo not drawn) | 12.6
COC[C@@H]1CC[C@H]2[C@H](CCN2S(=O)(=O)c2cccc(F)c2)O1 | -5.66
CC(C)NC(=O)CC1CC2(CCN(S(C)(=O)=O)CC2)c2ccccc21 (stereo not drawn) | 3.25
NC(=O)COc1ccc(CNCc2ccc(F)cc2F)cc1 | -5.1
Cc1ccccc1CC(C)NCc1c(C)nn(C)c1N1CCOCC1 (stereo not drawn) | -0.684
Cc1ccccc1CN1CC[C@H]2C[C@H](C(=O)N(C)C)O[C@H]2C1 | -12.7
COc1ccc(CN2CCC3(CC2)NC(=O)CC3c2cnn(C)c2)cc1 (stereo not drawn) | -8.08
CC(=O)N1CCC2(CCCN2Cc2cnn(C)c2)CC1 | -10
CCn1nc(C)cc1C(=O)N1C[C@H]2CCC[C@@]2(COc2ccccn2)C1 | -7.77
Cc1cc(CN2C[C@@H]3COC[C@]3(CNC(=O)c3ccsc3)C2)no1 | -8.24
O=C(C1CCOCC1)N1C[C@H]2CCC[C@@]2(COc2ccccn2)C1 | -11.3
O=C(Nc1cnccn1)[C@@H]1C[C@H]2OCC[C@H]2N(Cc2ccsc2)C1 | -7.42
CN(C)C[C@]12COC[C@H]1CN(C(=O)Cc1ccc3c(c1)OCO3)C2 | -9.79
Cn1cc(CN2CCCC23CCN(C(=O)c2ccccn2)CC3)cn1 | 18.2
Cn1cc(CN2CCCC23CCN(C(=O)c2ccncc2)CC3)cn1 | 20.3
c1ccn(Cc2nnc3n2CCCN(Cc2ccoc2)C3)c1 | 6.46
O=C(N1CCCC1)N1CCC2(CCN(Cc3ccccn3)C2=O)C1 (stereo not drawn) | 2.54

Structure (SMILES) | cytotoxicity at 70.5 h [%]
CN1CCC(c2nnc3ccc(C(=O)NC4CCCC4)cn23)C1 (stereo not drawn) | 15
O=C(Cc1ccccc1)N1CCCC2(COCCN(CC3CC3)C2)C1 (stereo not drawn) | -0.0192
c1cnc(N2CCC3(CN(CC4CCOC4)C3)C2)nc1 (stereo not drawn) | 24.1
COCC1CC2(CCN(Cc3ccco3)CC2)CN1C(C)C (stereo not drawn) | 6.8
O=C(NC[C@]12COC[C@H]1CN(Cc1cccnc1)C2)c1ccsc1 | 11.5
O=C1CC(c2ccncc2)C2(CCN(Cc3ccc(F)cc3)CC2)N1 (stereo not drawn) | -9.81
CN(C)CCOCC1CN(Cc2ccoc2)Cc2nnn(C)c21 (stereo not drawn) | -11.2
Cn1nnc2c1C(COCc1ccccn1)CN(Cc1ccoc1)C2 (stereo not drawn) | -12.1
O=C1CC(c2ccncc2)C2(CCN(CCc3ccccc3)CC2)N1 (stereo not drawn) | -6.87
CO[C@@H]1CC[C@H]2[C@H]1OCCN2Cc1ccccn1 | 18.3
O=C1COC2(CCN(CC3CCOCC3)CC2)CN1Cc1ccccn1 | -0.458
CCN(C)c1ncnc2c1CCN(Cc1ccc(F)cc1)CC2 | 19.9
Cc1nc(CN2CCO[C@H]3[C@@H](Oc4ccccn4)CC[C@@H]32)cs1 | 18.6
O=C(c1ccncc1)N1CCC2(CC1)CCN(Cc1ccccn1)C2=O | 15.2
c1ccc(CO[C@@H]2CC[C@H]3[C@H]2OCCN3Cc2ccsc2)nc1 | 8.96
Cc1noc(C)c1CN1CCO[C@H]2CN(Cc3cncn3C)C[C@H]21 | 19
Cc1noc(C)c1CN1CCO[C@H]2CN(Cc3ccc(F)cc3)C[C@H]21 | 0.623
c1cnc(N2CCC3(CCN(CC4CCOC4)CC3)CC2)nc1 (stereo not drawn) | 1.98
COCC1CC2(CCN(Cc3ccncc3)CC2)CN1C(C)C (stereo not drawn) | -7.56
CCN(C)c1ncnc2c1CCN(Cc1ccncc1)CC2 | -0.527
Cc1ccoc1C(=O)N1Cc2c(CN3CCCCC3)nn(C)c2C1 | 0.575
